Assay results as given in patent EP1655298A1, “Novel polymorph forms of candesartan cilexetil” (priority 2004, dated 2006).
Where two headings read alike, the source gives them in different places.

Columns and labels:
Type in all cases: physicochemical
[1] = Comparable solubility in phosphate buffer / physiologically relevant medium; conditions: for solubility at 0.5 h: read-out: C30 min; for solubility at 1 h: read-out: C60 min
Description: In order to prepare a pharmaceutical composition physical properties were measured.
(§1) Physiologically relevant medium is a phosphate buffer at pH=6.76 + Sodiumtauroholat (2,5 mM) + Lecitin (0,5 mM). Surface area of Form 1 was 2.15 - 2,68 m^2/g whereas the surface area of Form 5 was 7,66 m^2/g (BET - isotherm), the hygroscopity as established by DVS - first cycle at 90 % humidity was 0,23% for Form I and 0,44% for Form 5.

[2] = Hygroscopicity by DVS; conditions: DVS - first cycle at 90 % humidity
Description: as §1

[3] = Surface area (BET isotherm)
Description: as §1

Row | solubility at 0.5 h ([1]; aqueous buffer, Phosphate buffer pH=6.76, 30 min) | solubility at 1 h ([1]; aqueous buffer, Phosphate buffer pH=6.76, 60 min) | hygroscopity ([2]; listed as Form I) | C30 min ([1]; Phosphate buffer pH=6.76, 30 min) | C60 min ([1]; Phosphate buffer pH=6.76, 60 min) | solubility at 0.5 h ([1]; phosphate buffer + taurocholate + lecithin, Physiologically relevant medium: phosphate buffer pH=6.76 + Sodiumtauroholat (2,5 mM) + Lecitin (0,5 mM), 30 min) | solubility at 1 h ([1]; phosphate buffer + taurocholate + lecithin, Physiologically relevant medium: phosphate buffer pH=6.76 + Sodiumtauroholat (2,5 mM) + Lecitin (0,5 mM), 60 min) | Surface area [3] | hygroscopity [2] | SMILES
1 | < 0.2 µg/mL | < 0.2 µg/mL | 0,23% |  |  |  |  |  |  | CCOc1nc2cccc(C(=O)OC(C)OC(=O)OC3CCCCC3)c2n1Cc1ccc(-c2ccccc2-c2nnn[nH]2)cc1 (stereo not drawn) [Form 1, candesartan cilexetil]
2 |  |  |  | <0.2 µg/mL | <0.2 µg/mL | 37.1 µg/mL | 68.5 µg/mL | 7,66 m^2/g | 0,44% | CCOc1nc2cccc(C(=O)OC(C)OC(=O)OC3CCCCC3)c2n1Cc1ccc(-c2ccccc2-c2nnn[nH]2)cc1 (stereo not drawn) [Form 5, candesartan cilexetil]
